PubChem BioAssay AID256 (DTP/NCI, 2004)
Values joined by “and” are separate entries in the source; they are usually repeats but may differ in a detail not shown here. Equal values may be shown once. Inconclusive results and toxic doses are left out.

Tested on: CD2F1 mice, L1210 leukemia ip, survival T/C
Assay: NCI In Vivo Anticancer Drug Screen. Data for tumor model L1210 Leukemia (intraperitoneal) in CD2F1 (CDF1) mice
Conditions: endpoint: mean survival time, higher = longer survival
Outline: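 Vehicle-treated tumor-bearing mice served as controls (C) for compound-treated mice (T). Reported figure is T divided by C.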

## CN(C)/N=N/c1nc[nH]c1C(N)=O
dose: 1.56 mg/kg/injection, schedule: Q03HX024 (ip), vehicle: steriod suspending solution
  T/C: 105 % of control
dose: 1.56 mg/kg/injection, schedule: Q03HX024 (oral), vehicle: steriod suspending solution
  T/C: 105 % of control
dose: 2.9 mg/kg/injection, schedule: Q01DX009 (ip), vehicle: Klucel (hydroxypropylcellulose) (HPC)
  T/C: 103 % of control
dose: 3.12 mg/kg/injection, schedule: Q03HX024 (ip), vehicle: steriod suspending solution
  T/C: 115 % of control
dose: 3.12 mg/kg/injection, schedule: Q03HX024 (oral), vehicle: steriod suspending solution
  T/C: 107 % of control
dose: 5.7 mg/kg/injection, schedule: Q01DX009 (ip), vehicle: Klucel (hydroxypropylcellulose) (HPC)
  T/C: 108 % of control
dose: 6.25 mg/kg/injection, schedule: Q03HX016 (ip), vehicle: steriod suspending solution
  T/C: 107 % of control
dose: 6.25 mg/kg/injection, schedule: Q03HX016 (oral), vehicle: steriod suspending solution
  T/C: 110 % of control
dose: 6.25 mg/kg/injection, schedule: Q03HX024 (oral), vehicle: steriod suspending solution
  T/C: 104 % of control
dose: 11.4 mg/kg/injection, schedule: Q01DX009 (ip), vehicle: Klucel (hydroxypropylcellulose) (HPC)
  T/C: 104 % of control and 105 % of control
dose: 12.5 mg/kg/injection, schedule: Q01DX001 (ip), vehicle: distilled water + Tween-80
  T/C: 104 % of control and 105 % of control
dose: 12.5 mg/kg/injection, schedule: Q03HX016 (ip), vehicle: steriod suspending solution
  T/C: 109 % of control
dose: 12.5 mg/kg/injection, schedule: Q03HX016 (oral), vehicle: steriod suspending solution
  T/C: 109 % of control
dose: 12.5 mg/kg/injection, schedule: Q03HX024 (ip), vehicle: steriod suspending solution
  T/C: 116 % of control
dose: 22.7 mg/kg/injection, schedule: Q01DX009 (ip), vehicle: Klucel (hydroxypropylcellulose) (HPC)
  T/C: 115 % of control and 110 % of control
dose: 25.0 mg/kg/injection, schedule: Q01DX001 (ip), vehicle: distilled water + Tween-80
  T/C: 103 % of control and 104 % of control
dose: 25.0 mg/kg/injection, schedule: Q01DX009 (ip), vehicle: DMSO
  T/C: 110 % of control
dose: 25.0 mg/kg/injection, schedule: Q01DX009 (ip), vehicle: saline
  T/C: 117 % of control
dose: 25.0 mg/kg/injection, schedule: Q01DX009 (ip), vehicle: water
  T/C: 113 % of control
dose: 25.0 mg/kg/injection, schedule: Q03HX016 (oral), vehicle: steriod suspending solution
  T/C: 110 % of control
dose: 25.0 mg/kg/injection, schedule: Q03HX024 (ip), vehicle: steriod suspending solution
  T/C: 118 % of control
dose: 25.0 mg/kg/injection, schedule: Q03HX024 (oral), vehicle: steriod suspending solution
  T/C: 122 % of control
dose: 25.0 mg/kg/injection, schedule: Q04DX003 (ip), vehicle: other
  T/C: 110 % of control
dose: 25.0 mg/kg/injection, schedule: Q04DX003 (ip), vehicle: water
  T/C: 105 % of control
dose: 45.5 mg/kg/injection, schedule: Q01DX009 (ip), vehicle: Klucel (hydroxypropylcellulose) (HPC)
  T/C: 115 % of control and 123 % of control
dose: 50.0 mg/kg/injection, schedule: Q01DX001 (ip), vehicle: distilled water + Tween-80
  T/C: 113 % of control and 106 % of control
dose: 50.0 mg/kg/injection, schedule: Q01DX005 (ip), vehicle: other
  T/C: 117 % of control
dose: 50.0 mg/kg/injection, schedule: Q01DX009 (ip), vehicle: DMSO
  T/C: 120 % of control
dose: 50.0 mg/kg/injection, schedule: Q01DX009 (ip), vehicle: saline
  T/C: 116 % of control
dose: 50.0 mg/kg/injection, schedule: Q01DX009 (ip), vehicle: steriod suspending solution
  T/C: 115 % of control
dose: 50.0 mg/kg/injection, schedule: Q03DX003 (ip), vehicle: saline
  T/C: 110 % of control
dose: 50.0 mg/kg/injection, schedule: Q03HX016 (ip), vehicle: steriod suspending solution
  T/C: 115 % of control
dose: 50.0 mg/kg/injection, schedule: Q03HX016 (oral), vehicle: steriod suspending solution
  T/C: 105 % of control
dose: 50.0 mg/kg/injection, schedule: Q04DX003 (ip), vehicle: Klucel (hydroxypropylcellulose) (HPC)
  T/C: 103 % of control
dose: 50.0 mg/kg/injection, schedule: Q04DX003 (ip), vehicle: other
  T/C: 114 % of control
dose: 50.0 mg/kg/injection, schedule: Q04DX003 (ip), vehicle: saline
  T/C: 105 % of control
dose: 50.0 mg/kg/injection, schedule: Q04DX003 (ip), vehicle: water
  T/C: 117 % of control
dose: 60.0 mg/kg/injection, schedule: Q04DX003 (ip), vehicle: saline
  T/C: 88 % of control and 108 % of control
dose: 67.0 mg/kg/injection, schedule: Q01DX009 (ip), vehicle: carboxymethylcellulose (CMC)
  T/C: 160 % of control
dose: 80.0 mg/kg/injection, schedule: Q04DX003 (ip), vehicle: saline
  T/C: 92 % of control and 106 % of control
dose: 91.0 mg/kg/injection, schedule: Q01DX009 (ip), vehicle: Klucel (hydroxypropylcellulose) (HPC)
  T/C: 121 % of control
dose: 97.0 mg/kg/injection, schedule: Q01DX009 (ip), vehicle: carboxymethylcellulose (CMC)
  T/C: 154 % of control
dose: 100.0 mg/kg/injection, schedule: Q01DX001 (ip), vehicle: distilled water + Tween-80
  T/C: 114 % of control and 117 % of control
dose: 100.0 mg/kg/injection, schedule: Q01DX009 (ip), vehicle: carboxymethylcellulose (CMC)
  T/C: 160 % of control
